Source: patent publication US6380257B1, “Aromatic di-keto derivatives, processes for their production and their use as a pharmaceutical” (Aventis Pharma Deutschland GmbH, priority 1999, dated 2002)
Where two headings read alike, the source gives them in different places.

What was measured:
[1] = molecular target: T1, glucose-6-phosphate translocase from rat liver microsomes (Rattus norvegicus, UniProt F7EWB7); experiment: Inhibition of glucose-6-phosphate translocase from rat liver microsomes; type: biochemical
T1 construct: glucose-6-phosphate translocase from rat liver microsomes; from tissue; host or cells: rat liver microsomes
T1 sequence (F7EWB7 1-429): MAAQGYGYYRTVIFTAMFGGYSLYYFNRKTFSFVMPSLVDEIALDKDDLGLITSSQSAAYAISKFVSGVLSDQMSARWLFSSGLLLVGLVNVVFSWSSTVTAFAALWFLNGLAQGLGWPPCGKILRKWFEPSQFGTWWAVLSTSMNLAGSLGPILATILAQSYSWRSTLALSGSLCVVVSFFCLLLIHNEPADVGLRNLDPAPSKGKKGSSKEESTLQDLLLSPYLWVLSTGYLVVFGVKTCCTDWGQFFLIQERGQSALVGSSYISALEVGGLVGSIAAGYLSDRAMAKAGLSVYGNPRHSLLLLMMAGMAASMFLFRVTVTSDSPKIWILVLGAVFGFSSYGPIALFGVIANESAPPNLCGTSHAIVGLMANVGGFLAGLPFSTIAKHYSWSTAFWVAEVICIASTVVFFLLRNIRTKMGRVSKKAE

[2] = molecular target: T2, microsomal glucose-6-phosphatase (Rattus norvegicus, UniProt P43428); experiment: Inhibition of microsomal glucose-6-phosphatase; type: biochemical
T2 construct: from tissue; host or cells: liver microsomes (rat inferred)
T2 sequence (P43428 1-357): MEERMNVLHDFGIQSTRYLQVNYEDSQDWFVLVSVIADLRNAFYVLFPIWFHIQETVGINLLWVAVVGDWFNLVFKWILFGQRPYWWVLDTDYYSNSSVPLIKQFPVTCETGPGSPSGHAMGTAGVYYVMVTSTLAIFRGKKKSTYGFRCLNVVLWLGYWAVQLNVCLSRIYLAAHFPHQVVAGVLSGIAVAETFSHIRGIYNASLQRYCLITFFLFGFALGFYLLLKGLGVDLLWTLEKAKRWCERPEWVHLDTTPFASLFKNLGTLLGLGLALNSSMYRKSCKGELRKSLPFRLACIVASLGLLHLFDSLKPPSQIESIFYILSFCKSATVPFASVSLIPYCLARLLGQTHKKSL

[3] = Stability of mumbaistatin in solution; type: physicochemical

Work on `COC(=O)CC1CCC2(O1)OC1(OC(=O)c3c(OC)cc4c(c31)C(=O)c1c(O)cccc1C4=O)c1c(OC)cccc12` (stereo not shown) [XIXB] yielded an IC50 ([1]; read-out: Inhibition of glucose-6-phosphate translocase: IC50) greater than 100000 nM.

Work on `NC(=O)c1c(O)cc2c(c1C(=O)c1c(O)cccc1C1(O)CCC(CC(=O)O)O1)C(=O)c1c(O)cccc1C2=O` (stereo not shown) [XXIIIA] yielded an IC50 ([1]; read-out: inhibits glucose-6-phosphate translocase with an IC50) of roughly 1000 nM.

For mumbaistatin, the IC50 ([1]; rat liver microsomes, listed as mumbaistain, read-out: Inhibition of glucose-6-phosphate translocase, IC50) was roughly 5 nM, the IC50 ([1]; rat liver microsomes, read-out: Inhibition of glucose-6-phosphate translocase, IC50) was 5 nM and the “Inhibition of microsomal glucose-6-phosphatase in 10 μM solution” value [2] was “activity was not demonstrable”. The “stability in solution at acid pH” value ([3]; acid pH, conversion e.g. to compound of formula XIXD) was “rapidly undergoes a complex conversion” and the stability in solution ([3]; pH of around 6 to 9) was “limited stability”.
